In publication doi:10.1101/2020.12.13.873687v1 (biorxiv, 2020):

target: human amylin (islet amyloid polypeptide, IAPP) (Homo sapiens, UniProt P10997); experiment: thioflavin T fluorescence amyloid aggregation inhibition; type: biochemical
Sequence (P10997 34-70): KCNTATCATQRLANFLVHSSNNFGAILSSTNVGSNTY

IC50 | Compound
~1 µM | O=C(O[C@@H]1Cc2c(O)cc(O)cc2O[C@@H]1c1cc(O)c(O)c(O)c1)c1cc(O)c(O)c(O)c1 [Epigallocatechin gallate, reference compound]
7.2 µM | O=C(O)/C=C/c1ccc(O)c(O)c1 [caffeic acid]
0.2 to 0.3 µM | O=C(/C=C/c1ccc(O)c(O)c1)O[C@H](Cc1ccc(O)c(O)c1)C(=O)O [rosmarinic acid]
90 µM | O=C(O)[C@H](O)Cc1ccc(O)c(O)c1 [salvianic acid A]
